Measured values from BigSolDB 2.1.

CC1=CC(=O)c2ccccc2C1=O
solubility (mole fraction)
Settings	in 1,2-dichloroethane	in acetone	in acetonitrile	in cyclohexane	in dichloromethane	in isopropanol	in methanol	in methyl acetate	in n-butanol	in n-propanol
278.15 K	0.0879	0.0305	0.016	–	0.111	0.00291	0.00285	0.0427	0.00314	0.00343
283.15 K	0.108	0.0381	0.0197	0.00329	0.128	0.00373	0.00335	0.0481	0.00417	0.00426
288.15 K	0.12	0.0439	0.027	0.00417	0.148	0.0048	0.00396	0.0595	0.0057	0.00564
293.15 K	0.142	0.0534	0.0326	0.00514	0.169	0.00588	0.00484	0.0718	0.00742	0.00685
298.15 K	0.159	0.0669	0.0403	0.00673	0.193	0.00764	0.00606	0.0854	0.00994	0.00838
303.15 K	0.187	0.0809	0.0491	0.00848	0.219	0.0096	0.00709	0.105	0.0127	0.01
308.15 K	0.21	0.0983	0.0609	0.0103	0.247	0.0122	0.00827	0.12	0.0169	0.0122
313.15 K	0.243	0.118	0.0737	0.0131	0.277	0.0153	0.00975	0.148	0.0223	0.0143
